The values below come from patent publication US20250230193A1, “CYCLIC COMPOUND HAVING SELECTIVE KRAS INHIBITORY EFFECT ON HRAS AND NRAS” (CHUGAI SEIYAKU KABUSHIKI KAISHA, priority 2022, published 2025).

For experiment [1], the target named is GDP-bound HRAS wild-type protein (Homo sapiens, UniProt P01112). In words: Binding to HRAS by surface plasmon resonance (SPR), Single Cycle Kinetics. The note with it: SPR.
Experiment [2] addresses GDP-bound NRAS wild-type protein (Homo sapiens, UniProt P01111). In words: Binding to NRAS by surface plasmon resonance (SPR), Single Cycle Kinetics. The note with it: SPR.
Where [3] appears, read: KD ratio, GDP-bound HRAS wild-type vs GDP-bound KRAS wild-type.
The mark [4] stands for this setting: KD ratio, GDP-bound NRAS wild-type vs GDP-bound KRAS wild-type.

Where a SMILES comes first, the peptide text is derived from it. Bridges are numbered along the chain shown (N, C = ends). [ ]: non-standard residue; d: D form. hPhe(3,5-F2-4-CF3) = N[C@@H](CCc1cc(F)c(C(F)(F)F)c(F)c1)C(=O)O; hPhe(3-Cl-4-CF3) = N[C@@H](CCc1ccc(C(F)(F)F)c(Cl)c1)C(=O)O; NPrPhe(4-CF3) = CCCN[C@@H](Cc1ccc(C(F)(F)F)cc1)C(=O)O; NMeGly(cPent) = CN[C@H](C(=O)O)C1CCCC1; NMeNva(3-Et) = CCC(CC)[C@H](NC)C(=O)O; NMeD = CN[C@@H](CC(=O)O)C(=O)O; Ac4c(3-oxa) = NC1(C(=O)O)COC1; NMeL = CN[C@@H](CC(C)C)C(=O)O; Ac4c = NC1(C(=O)O)CCC1; Sar = CNCC(=O)O

Chain of GDP-bound NRAS wild-type protein (P01111 whole entry): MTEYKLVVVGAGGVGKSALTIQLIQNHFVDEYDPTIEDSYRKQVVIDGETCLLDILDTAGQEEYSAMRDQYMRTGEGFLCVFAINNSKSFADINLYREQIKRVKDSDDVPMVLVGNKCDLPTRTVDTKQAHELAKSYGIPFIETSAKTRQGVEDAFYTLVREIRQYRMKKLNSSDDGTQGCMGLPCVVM
Chain of GDP-bound HRAS wild-type protein (P01112 whole entry): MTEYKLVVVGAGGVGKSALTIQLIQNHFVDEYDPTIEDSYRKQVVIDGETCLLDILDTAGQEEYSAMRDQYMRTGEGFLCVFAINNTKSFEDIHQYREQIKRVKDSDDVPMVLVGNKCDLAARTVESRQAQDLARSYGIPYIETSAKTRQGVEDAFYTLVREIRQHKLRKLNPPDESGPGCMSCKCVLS

As for `C#CC[C@H]1C(=O)N[C@@H]([C@@H](C)CC)C(=O)N(C)CC(=O)N(C)[C@H]2C/C=C\CCN(C2=O)[C@@H](Cc2ccc(C(F)(F)F)cc2)C(=O)N(C)CC(=O)N[C@@H](CCc2cc(F)c(C(F)(F)F)c(F)c2)C(=O)N2C[C@H](OCC)C[C@H]2C(=O)NC2(CC(C)(C)C2)C(=O)N(C)[C@@H](C2CCCC2)C(=O)N(C)[C@H](C(=O)N(C)CC)CC(=O)N1C` [PP2073], the “HRAS/KRAS (ratio of KD value with respect to HRAS to KD value with respect to KRAS)” value in experiment [1] (GDP-bound HRAS wild-type vs GDP-bound KRAS wild-type) was “A (a compound having 10 or more and less than 20 is denoted as A)”. Further, the “NRAS/KRAS (ratio of KD value with respect to NRAS to KD value with respect to KRAS)” value in experiment [2] (GDP-bound NRAS wild-type vs GDP-bound KRAS wild-type) is “A (a compound having 10 or more and less than 20 is denoted as A)”.

Turning to `CCCN1C(=O)CN(C)C(=O)CN(C)C(=O)[C@H]([C@@H](C)CC)NC(=O)[C@H](CC(C)C)N(C)C(=O)C[C@@H](C(=O)N(C)C)N(C)C(=O)[C@H](C(CC)CC)N(C)C(=O)C2(CCC2)NC(=O)[C@@H]2CCCN2C(=O)[C@H](CCc2ccc(C(F)(F)F)c(Cl)c2)NC(=O)CN(C)C(=O)[C@@H]1Cc1ccc(C(F)(F)F)cc1` [PP1960] ([NMeL]I[Sar][Sar][NPrPhe(4-CF3)][Sar][hPhe(3-Cl-4-CF3)]P[Ac4c][NMeNva(3-Et)][NMeD]-NMe2; lactam N-11), the “HRAS/KRAS (ratio of KD value for HRAS to KD value for KRAS)” value in experiment [1] (setting [3]) is “C (A compound having a KD ratio of 0.1 or more and less than 3 is denoted as C)”. In addition, the “NRAS/KRAS (ratio of KD value for NRAS to KD value for KRAS)” value in experiment [2] (setting [4]) was “B (a compound having 3 or more and less than 10 is denoted as B)”.

Consider `CCCN1C(=O)[C@H](C2CCCC2)N(C)C(=O)C2(CCC2)NC(=O)[C@@H]2C[C@@H](OCC)CN2C(=O)[C@H](CCc2cc(F)c(C(F)(F)F)c(F)c2)NC(=O)CN(C)C(=O)[C@H](Cc2ccc(C(F)(F)F)cc2)N2CCCC[C@@H](C2=O)N(C)C(=O)CN(C)C(=O)[C@H]([C@@H](C)CC)NC(=O)[C@H](CC(C)C)N(C)C(=O)C[C@H]1C(=O)N1CCOCC1` [PP0649], for which the “HRAS/KRAS (ratio of KD value with respect to GDP-bound HRAS wild-type protein to KD value with respect to KRAS)” value in experiment [1] is “B (a compound having 3 or more and less than 10 is denoted as B)”. Besides, the “NRAS/KRAS (ratio of KD value with respect to GDP-bound NRAS wild-type protein to KD value with respect to KRAS)” value in experiment [2] was “C (A compound having a KD ratio of 0.1 or more and less than 3 is denoted as C)”.

Regarding `CCO[C@@H]1C[C@H]2C(=O)NC3(CCC3)C(=O)N(C)[C@@H](C3CCCC3)C(=O)N(C)[C@H](C(=O)N(C)C)CC(=O)N(C)[C@@H](CC(C)C)C(=O)N[C@@H]([C@@H](C)CC)C(=O)N(C)CC(=O)N(C)[C@H]3CC(C)=CCN(C3=O)[C@@H](Cc3ccc(C(F)(F)F)cc3)C(=O)N(C)CC(=O)N[C@@H](CCc3cc(F)c(C(F)(F)F)c(F)c3)C(=O)N2C1` [PP1032], the “HRAS/KRAS (ratio of KD value with respect to HRAS to KD value with respect to KRAS)” value in experiment [1] (setting [3]) is “C (A compound having a KD ratio of 0.1 or more and less than 3 is denoted as C)”. The “NRAS/KRAS (ratio of KD value with respect to NRAS to KD value with respect to KRAS)” value in experiment [2] (setting [4]) is “C (A compound having a KD ratio of 0.1 or more and less than 3 is denoted as C)”.

With `CCCN1C(=O)CN(C)C(=O)CN(C)C(=O)[C@H]([C@@H](C)CC)NC(=O)[C@H](CC(C)C)N(C)C(=O)C[C@@H](C(=O)N(C)C)N(C)C(=O)[C@H](C2CCCC2)N(C)C(=O)C2(COC2)NC(=O)[C@@H]2CCCN2C(=O)[C@H](CCc2cc(F)c(C(F)(F)F)c(F)c2)NC(=O)CN(C)C(=O)[C@@H]1Cc1ccc(C(F)(F)F)cc1` [PP0744] ([NMeL]I[Sar][Sar][NPrPhe(4-CF3)][Sar][hPhe(3,5-F2-4-CF3)]P[Ac4c(3-oxa)][NMeGly(cPent)][NMeD]-NMe2; lactam N-11), the “HRAS/KRAS (ratio of KD value with respect to GDP-bound HRAS wild-type protein to KD value with respect to KRAS)” value in experiment [1] is “B (a compound having 3 or more and less than 10 is denoted as B)”. The “NRAS/KRAS (ratio of KD value with respect to GDP-bound NRAS wild-type protein to KD value with respect to KRAS)” value in experiment [2] is “B (a compound having 3 or more and less than 10 is denoted as B)”.

As for `CCO[C@@H]1C[C@H]2C(=O)NC3(CCC3)C(=O)N(C)[C@@H](C3CCCC3)C(=O)N(C)[C@H](C(=O)N3CCOCC3)CC(=O)N(C)[C@@H](CC)C(=O)N[C@@H]([C@@H](C)CC)C(=O)N(C)CC(=O)N(C)[C@H]3CCCCN(C3=O)[C@@H](Cc3ccc(C(F)(F)F)cc3)C(=O)N(C)CC(=O)N[C@@H](CCc3cc(F)c(C(F)(F)F)c(F)c3)C(=O)N2C1` [PP0708], the “HRAS/KRAS (ratio of KD value with respect to GDP-bound HRAS wild-type protein to KD value with respect to KRAS)” value in experiment [1] was “B (a compound having 3 or more and less than 10 is denoted as B)”. For the same compound, in experiment [2], the “NRAS/KRAS (ratio of KD value with respect to GDP-bound NRAS wild-type protein to KD value with respect to KRAS)” value is “B (a compound having 3 or more and less than 10 is denoted as B)”.

`CCO[C@@H]1C[C@H]2C(=O)NC3(CCC3)C(=O)N(C)[C@@H](C3CCCC3)C(=O)N(C)[C@H](C(=O)N(C)C)CC(=O)N(C)[C@@H](CC)C(=O)N[C@@H]([C@@H](C)CC)C(=O)N(C)CC(=O)N(C)[C@H]3C/C=C\CCN(C3=O)[C@@H](Cc3ccc(C(F)(F)F)cc3)C(=O)N(C)CC(=O)N[C@@H](CCc3ccc(C(F)(F)F)c(Cl)c3)C(=O)N2C1` [PP0978]: the “HRAS/KRAS (ratio of KD value with respect to HRAS to KD value with respect to KRAS)” value in experiment [1] (setting [3]) was “B (a compound having 3 or more and less than 10 is denoted as B)”. Besides, the “NRAS/KRAS (ratio of KD value with respect to NRAS to KD value with respect to KRAS)” value in experiment [2] (setting [4]) was “A (a compound having 10 or more and less than 20 is denoted as A)”.
